Measurements as given in patent US11236129B2, “IL-17A binding peptides and medical uses thereof” (Dompe' Farmaceutici S.P.A., priority 2018, dated 2022).
Residues, ends and D or L forms follow the SMILES beside them.

Molecular target: IL-17RA/IL17RC dimerization induced by IL-17A (Homo sapiens, UniProt Q16552)
Test: IL-17RA/IL17RC dimerization assay in response to IL-17A (PathHunter Cytokine Receptor Assay)
Type: cell-based
Details: IL-17A at EC80; read-out: IC50 in IL-17RA/IL7RC dimerization assay
Procedure: The peptides of Table 7 were tested for their ability to inhibit the binding of IL-17A to its receptor and the subsequent interaction of IL-17RA and IL17RC.
Interleukin receptor RA and RC dimerization assay (DiscoverX) was used to measure the interaction of the receptor chains IL-17RA and IL17RC upon activation by IL-17A in the absence or presence of the peptides of Table 7.
In the PathHunter® Cytokine Receptor Assay, one cytokine receptor chain is tagged with a small peptide epitope ProLink (PK) and the other chain is tagged with Enzyme Acceptor (EA). Ligand binding induces dimerization of the two receptors, facilitating complementation of PK and EA fragments. This interaction generates an active unit of b-galactosidase, which is detected using a chemiluminescent substrate. PathHunter cell lines were expanded from freezer stocks according to standard procedures. Cells were seeded in a total volume of 20 μL into white walled, 384-well microplates and incubated for the appropriate time prior to testing. For agonist activity inhibition, cells were incubated with sample to induce response. Intermediate dilution of sample stocks was performed to generate 5× sample in assay buffer. 5 μL of 5× sample was added to cells and incubated at 37° C. or room temperature for 60 minutes. Vehicle concentration was 1%. 5 μL of 6×EC80 agonist (IL-17A) in assay buffer was added to the cells and incubated at 37° C. for 6 to 16 hours depending on the assay. 1. […] For some assays, activity was detected using a high sensitivity detection reagent (PathHunter Flash Kit) to improve assay performance. In these assays, an equal volume of detection reagent (25 or 30 uL) was added to the wells, followed by a one hour incubation at room temperature. Microplates were read following signal generation with a PerkinElmer Envision™ instrument for chemiluminescent signal detection. Compound activity was analyzed using CBIS data analysis suite (ChemInnovation, CA). % Inhibition=100%×(1−(mean RLU of test sample−mean RLU of vehicle control)/(mean RLU of EC80 control−mean RLU of vehicle control)).

Chain of IL-17RA/IL17RC dimerization induced by IL-17A (Q16552 24-155): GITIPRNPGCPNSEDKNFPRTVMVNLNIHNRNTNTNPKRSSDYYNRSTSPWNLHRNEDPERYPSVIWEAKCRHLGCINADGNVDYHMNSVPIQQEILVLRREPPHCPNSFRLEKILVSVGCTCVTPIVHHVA

Row | Compound | IC50 [nM]
1 | CC(=O)N[C@H](C(=O)N[C@@H](Cc1c[nH]cn1)C(=O)N[C@@H](Cc1ccccc1)C(=O)N[C@@H](CCC(N)=O)C(=O)N[C@@H](Cc1ccccc1)C(=O)N1CCC[C@H]1C(=O)N[C@@H](C)C(=O)N[C@@H](CC(=O)O)C(=O)N[C@@H](CC(C)C)C(=O)N[C@@H](Cc1c[nH]c2ccccc12)C(=O)N[C@@H](CCC(=O)O)C(=O)N[C@@H](Cc1c[nH]c2ccccc12)C(=O)N[C@@H](Cc1ccccc1)C(=O)N[C@@H](CCCNC(=N)N)C(=O)N[C@@H](CCCNC(=N)N)C(N)=O)C(C)C [SEQ ID NO: 135] (Ac-VHFQFPADLWEWFRR-NH2) | < 500
2 | CC(=O)N[C@H](C(=O)N[C@@H](Cc1c[nH]cn1)C(=O)N[C@@H](Cc1ccccc1)C(=O)N[C@@H](CCC(N)=O)C(=O)N[C@@H](Cc1ccccc1)C(=O)N1CCC[C@H]1C(=O)N[C@@H](CCC(N)=O)C(=O)N[C@@H](CC(=O)O)C(=O)N[C@@H](Cc1c[nH]c2ccccc12)C(=O)N[C@@H](Cc1c[nH]c2ccccc12)C(=O)N[C@@H](CCC(=O)O)C(=O)N[C@@H](Cc1c[nH]c2ccccc12)C(=O)N[C@H](C(=O)N[C@@H](CCCNC(=N)N)C(=O)N[C@@H](CCCNC(=N)N)C(N)=O)C(C)C)C(C)C [SEQ ID NO: 136] (Ac-VHFQFPQDWWEWVRR-NH2) | < 500
3 | CC[C@H](C)[C@H](NC(=O)[C@H](CCC(N)=O)NC(=O)[C@H](Cc1ccccc1)NC(=O)[C@H](Cc1c[nH]cn1)NC(=O)[C@@H](NC(C)=O)C(C)C)C(=O)N1CCC[C@H]1C(=O)N[C@@H](CCC(N)=O)C(=O)N[C@@H](CC(=O)O)C(=O)N[C@@H](Cc1c[nH]c2ccccc12)C(=O)N[C@@H](Cc1c[nH]c2ccccc12)C(=O)N[C@@H](CCC(=O)O)C(=O)N[C@@H](Cc1c[nH]c2ccccc12)C(=O)N[C@H](C(=O)N[C@@H](CCCNC(=N)N)C(=O)N[C@@H](CCCNC(=N)N)C(N)=O)C(C)C [SEQ ID NO: 137] (Ac-VHFQIPQDWWEWVRR-NH2) | < 500
4 | CC(=O)N[C@H](C(=O)N[C@@H](Cc1c[nH]cn1)C(=O)N[C@@H](Cc1ccccc1)C(=O)N[C@@H](CCC(N)=O)C(=O)N[C@@H](Cc1ccccc1)C(=O)N1CCC[C@H]1C(=O)N[C@@H](CCC(N)=O)C(=O)N[C@@H](CC(=O)O)C(=O)N[C@@H](Cc1c[nH]c2ccccc12)C(=O)N[C@@H](Cc1ccc(O)cc1)C(=O)N[C@@H](CCC(=O)O)C(=O)N[C@@H](Cc1c[nH]c2ccccc12)C(=O)N[C@H](C(=O)N[C@@H](CCCNC(=N)N)C(=O)N[C@@H](CCCNC(=N)N)C(N)=O)C(C)C)C(C)C [SEQ ID NO: 138] (Ac-VHFQFPQDWYEWVRR-NH2) | < 500
5 | CC(=O)N[C@H](C(=O)N[C@@H](Cc1c[nH]cn1)C(=O)N[C@@H](Cc1ccccc1)C(=O)N[C@@H](CCC(N)=O)C(=O)N[C@@H](Cc1ccccc1)C(=O)N1CCC[C@H]1C(=O)N[C@@H](CCC(N)=O)C(=O)N[C@@H](CC(=O)O)C(=O)N[C@@H](Cc1c[nH]c2ccccc12)C(=O)N[C@@H](Cc1c[nH]c2ccccc12)C(=O)N[C@@H](CC(N)=O)C(=O)N[C@@H](Cc1c[nH]c2ccccc12)C(=O)N[C@H](C(=O)N[C@@H](CCCNC(=N)N)C(=O)N[C@@H](CCCNC(=N)N)C(N)=O)C(C)C)C(C)C [SEQ ID NO: 139] (Ac-VHFQFPQDWWNWVRR-NH2) | < 500
6 | CC(=O)N[C@H](C(=O)N[C@@H](Cc1c[nH]cn1)C(=O)N[C@@H](Cc1ccccc1)C(=O)N[C@@H](CCC(N)=O)C(=O)N[C@@H](Cc1ccccc1)C(=O)N1CCC[C@H]1C(=O)N[C@@H](CCC(N)=O)C(=O)N[C@@H](CC(=O)O)C(=O)N[C@@H](CC(C)C)C(=O)N[C@@H](Cc1c[nH]c2ccccc12)C(=O)N[C@@H](CCC(=O)O)C(=O)N[C@@H](Cc1ccccc1)C(=O)N[C@H](C(=O)N[C@@H](CCCNC(=N)N)C(=O)N[C@@H](CCCNC(=N)N)C(N)=O)C(C)C)C(C)C [SEQ ID NO: 140] (Ac-VHFQFPQDLWEFVRR-NH2) | < 500

Results, then the compound that gave them:

Row | IC50 [nM] | Compound
7 | < 500 | CC(=O)N[C@H](C(=O)N[C@@H](Cc1c[nH]cn1)C(=O)N[C@@H](Cc1ccccc1)C(=O)N[C@@H](CCC(N)=O)C(=O)N[C@@H](Cc1ccccc1)C(=O)N1CCC[C@H]1C(=O)N[C@@H](CCC(N)=O)C(=O)N[C@@H](CC(=O)O)C(=O)N[C@@H](Cc1c[nH]c2ccccc12)C(=O)N[C@@H](Cc1c[nH]c2ccccc12)C(=O)N[C@@H](CCC(=O)O)C(=O)N[C@@H](Cc1c[nH]c2ccccc12)C(=O)N[C@@H](Cc1ccccc1)C(=O)N[C@@H](CCCNC(=N)N)C(=O)N[C@@H](CCCNC(=N)N)C(N)=O)C(C)C [SEQ ID NO: 141] (Ac-VHFQFPQDWWEWFRR-NH2)
8 | < 500 | CC[C@H](C)[C@H](NC(=O)[C@@H](NC(=O)[C@H](Cc1ccccc1)NC(=O)[C@H](Cc1c[nH]cn1)NC(=O)[C@@H](NC(C)=O)C(C)C)[C@@H](C)O)C(=O)N1CCC[C@H]1C(=O)N[C@@H](C)C(=O)N[C@@H](CC(=O)O)C(=O)N[C@@H](Cc1ccccc1)C(=O)N[C@@H](Cc1c[nH]c2ccccc12)C(=O)N[C@@H](CCC(=O)O)C(=O)N[C@@H](Cc1c[nH]c2ccccc12)C(=O)N[C@@H](Cc1ccccc1)C(=O)N[C@@H](CCCNC(=N)N)C(=O)N[C@@H](CCCNC(=N)N)C(N)=O [SEQ ID NO: 142] (Ac-VHFTIPADFWEWFRR-NH2)
9 | < 500 | CC[C@H](C)[C@H](NC(=O)[C@H](CCC(N)=O)NC(=O)[C@@H](NC(=O)[C@H](Cc1c[nH]cn1)NC(=O)[C@@H](NC(C)=O)C(C)C)C(C)C)C(=O)N1CCC[C@H]1C(=O)N[C@@H](C)C(=O)N[C@@H](CC(=O)O)C(=O)N[C@@H](Cc1ccccc1)C(=O)N[C@@H](Cc1c[nH]c2ccccc12)C(=O)N[C@@H](CCC(=O)O)C(=O)N[C@@H](Cc1c[nH]c2ccccc12)C(=O)N[C@@H](Cc1ccccc1)C(=O)N[C@@H](CCCNC(=N)N)C(=O)N[C@@H](CCCNC(=N)N)C(N)=O [SEQ ID NO: 143] (Ac-VHVQIPADFWEWFRR-NH2)
10 | < 500 | CC(=O)N[C@H](C(=O)N[C@@H](Cc1c[nH]cn1)C(=O)N[C@H](C(=O)N[C@H](C(=O)N[C@@H](Cc1ccccc1)C(=O)N1CCC[C@H]1C(=O)N[C@@H](C)C(=O)N[C@@H](CC(=O)O)C(=O)N[C@@H](CC(C)C)C(=O)N[C@@H](Cc1c[nH]c2ccccc12)C(=O)N[C@@H](CCC(=O)O)C(=O)N[C@@H](Cc1c[nH]c2ccccc12)C(=O)N[C@@H](Cc1ccccc1)C(=O)N[C@@H](CCCNC(=N)N)C(=O)N[C@@H](CCCNC(=N)N)C(N)=O)[C@@H](C)O)C(C)C)C(C)C [SEQ ID NO: 144] (Ac-VHVTFPADLWEWFRR-NH2)
11 | < 500 | CC[C@H](C)[C@H](NC(=O)[C@@H](NC(=O)[C@@H](NC(=O)[C@H](Cc1c[nH]cn1)NC(=O)[C@@H](NC(C)=O)C(C)C)C(C)C)[C@@H](C)O)C(=O)N1CCC[C@H]1C(=O)N[C@@H](CCC(N)=O)C(=O)N[C@@H](CC(=O)O)C(=O)N[C@@H](Cc1ccccc1)C(=O)N[C@@H](Cc1c[nH]c2ccccc12)C(=O)N[C@@H](CCC(=O)O)C(=O)N[C@@H](Cc1c[nH]c2ccccc12)C(=O)N[C@@H](Cc1ccccc1)C(=O)N[C@@H](CCCNC(=N)N)C(=O)N[C@@H](CCCNC(=N)N)C(N)=O [SEQ ID NO: 145] (Ac-VHVTIPQDFWEWFRR-NH2)
12 | < 500 | CC[C@H](C)[C@H](NC(=O)[C@@H](NC(=O)[C@H](Cc1ccccc1)NC(=O)[C@H](Cc1c[nH]cn1)NC(=O)[C@@H](NC(C)=O)C(C)C)[C@@H](C)O)C(=O)N1CCC[C@H]1C(=O)N[C@@H](CCC(N)=O)C(=O)N[C@@H](CC(=O)O)C(=O)N[C@@H](Cc1c[nH]c2ccccc12)C(=O)N[C@@H](Cc1c[nH]c2ccccc12)C(=O)N[C@@H](CCC(=O)O)C(=O)N[C@@H](Cc1c[nH]c2ccccc12)C(=O)N[C@H](C(=O)N[C@@H](CCCNC(=N)N)C(=O)N[C@@H](CCCNC(=N)N)C(N)=O)C(C)C [SEQ ID NO: 146] (Ac-VHFTIPQDWWEWVRR-NH2)
13 | < 500 | CC(=O)N[C@H](C(=O)N[C@@H](Cc1c[nH]cn1)C(=O)N[C@@H](Cc1ccccc1)C(=O)N[C@H](C(=O)N[C@@H](Cc1ccccc1)C(=O)N1CCC[C@H]1C(=O)N[C@@H](CCC(N)=O)C(=O)N[C@@H](CC(=O)O)C(=O)N[C@@H](CC(C)C)C(=O)N[C@@H](Cc1ccc(O)cc1)C(=O)N[C@@H](CC(N)=O)C(=O)N[C@@H](Cc1c[nH]c2ccccc12)C(=O)N[C@H](C(=O)N[C@@H](CCCNC(=N)N)C(=O)N[C@@H](CCCNC(=N)N)C(N)=O)C(C)C)[C@@H](C)O)C(C)C [SEQ ID NO: 147] (Ac-VHFTFPQDLYNWVRR-NH2)
14 | < 500 | CC(=O)N[C@H](C(=O)N[C@@H](Cc1c[nH]cn1)C(=O)N[C@@H](Cc1ccccc1)C(=O)N[C@H](C(=O)N[C@@H](Cc1ccccc1)C(=O)N1CCC[C@H]1C(=O)N[C@@H](CCC(N)=O)C(=O)N[C@@H](CC(=O)O)C(=O)N[C@@H](CC(C)C)C(=O)N[C@@H](Cc1ccc(O)cc1)C(=O)N[C@@H](CC(N)=O)C(=O)N[C@@H](Cc1ccccc1)C(=O)N[C@H](C(=O)N[C@@H](CCCNC(=N)N)C(=O)N[C@@H](CCCNC(=N)N)C(N)=O)C(C)C)[C@@H](C)O)C(C)C [SEQ ID NO: 148] (Ac-VHFTFPQDLYNFVRR-NH2)
